Converted amounts (≈) assume the structure as drawn. Read-outs that look alike come from different tables or passages of the source.
Experiments:
[1] = system: VanA E. faecium (ATCC BAA-2317); test: In vitro antimicrobial microdilution assay (MIC); format: cell-based, Enterococcus faecium
Description: (§2) The lowest concentration of antibiotic (in μg/mL) capable of eliminating cell growth in the wells is the reported MIC value.

VanA VRE, 4 strains = test: Antimicrobial activity against VanA VRE panel (4 strains), summarised in text; format: cell-based, Enterococcus faecalis, Enterococcus faecium
Description: as §2

[2] = system: VanA E. faecalis BM 4166 or ATCC BAA-2573; test: microbe, parasite or virus in culture; format: cell-based; conditions: Enterococcus faecalis, ATCCBAA2573, read-out: MIC, VanA E. faecalis
Description: as §2

[3] = Mouse pharmacokinetics, iv; conditions: 10 mg/kg
Description: Plasma was obtained by centrifugation using a microcentrifuge fit with a hematocrit rotor, and obtained plasma was immediately frozen. The use of micro-sampling blood collection reduces the total blood taken from the mouse and allows a single mouse to be used for the entire time course, reducing inter-individual variability and maintaining the health of the mouse.
Drug levels were determined by mass spectrometry using an ABSciex 5500 mass spectrometer using multiple reaction monitoring. […] All PK work was conducted in the Scripps Florida vivarium which is fully AAALAC accredited. Procedures were approved by the Scripps Florida IACUC, protocol number 15-022.

[4] = system: VanA VRE E. faecalis BM 4166 and E. faecium ATCC BAA-2317; conditions: previously reported; C1-vancomycin even at 100 μM; cited from earlier work
[5] = mice, earlier studies; cited from earlier work
[6] = mice, cited from earlier work; for terminal half-life (t1/2): earlier studies; for AUC / CL / Cmax / Vd / t1/2 / tmax: iv, earlier study
[7] = system: VanA E. faecalis (BM 4166); test: In vitro antimicrobial microdilution assay (MIC); format: cell-based, Enterococcus faecalis
Description: as §2

[8] = system: VanA E. faecalis (ATCC BAA-2573); test: In vitro antimicrobial microdilution assay (MIC); format: cell-based, Enterococcus faecalis
Description: as §2

VanA E. faecium (TX2465) = test: In vitro antimicrobial microdilution assay (MIC); format: cell-based, Enterococcus faecium
Description: as §2

[9] = system: VanB E. faecalis ATCC 51299; test: microbe, parasite or virus in culture; format: cell-based, Enterococcus faecalis; conditions: for MIC: Enterococcus faecalis, ATCC51299, read-out: MIC, VanB E. faecalis ATCC 51299
Description: as §2

[10] = system: Sensitive S. aureus ATCC 25923; test: In vitro antimicrobial microdilution assay (MIC); format: cell-based, Staphylococcus aureus
Description: as §2

[11] = system: MRSA S. aureus ATCC 43300; test: microbe, parasite or virus in culture; format: cell-based, Staphylococcus aureus; conditions: for MIC: Staphylococcus aureus, read-out: MIC, MRSA S. aureus ATCC 43300
Description: as §2

[12] = system: VanA VRE E. faecalis (BM 4166); test: Impact of added LTA, phosphate, POPE on antimicrobial activity (MIC); format: cell-based, Enterococcus faecalis; conditions: for decrease of antimicrobial activity by added LTA: 100 μg/mL LTA, both VanA VRE strains
Description: (§1) When NaH2PO4 or POPE was used instead of LTA, 10% brain-heart infusion broth containing 0.002% Tween®-80 with 100 μg/mL NaH2PO4 or 100 μg/mL POPE was used as the culture medium used for serial dilution. When additional G3 (H2N^+(CH2)3NHC(NH2)═NH2^+.2TFA) or Mg^2+ was used, 10% brain-heart infusion broth containing 0.002% Tween®-80 with 100 μg/mL G3 or 100 μg/mL MgCl2 and 100 μg/mL lipoteichoic acid was used as the culture medium for serial dilution of study group, 10% brain-heart infusion broth containing 0.002% Tween®-80 with 100 μg/mL G3 was used as the culture medium for serial dilution of control group.

[13] = system: VanA VRE E. faecium (ATCC BAA2317); test: organism not typed; format: cell-based, Enterococcus faecium
Description: as §1

[14] = system: VanA VRE E. faecalis BM 4166 and E. faecium ATCC BAA-2317; format: cell-based, Enterococcus faecalis, Enterococcus faecium; conditions: 10 μM added at 5 minutes
Description: The above bacterial solution was subjected to a subculture to obtain fresh mid-log phase bacterial cells (incubation time=6 hours). The bacterial suspension was diluted to a total volume of 7 mL with OD600=0.6.
After the cultured bacteria were harvested (3000 rpm, 4° C., 20 minutes), the white bacterial precipitate was washed and resuspended in 5 mM glucose and 5 mM HEPES buffer (1:1, 5.00 mL, pH=7.2).

[15] = system: VanA VRSA strain VRS2 (S. aureus); conditions: mouse, in vivo; cited from earlier work
[16] = system: VanA E. faecalis (BM 4166); conditions: earlier trimethylammonium cation modified analogues; cited from earlier work
[17] = system: VanA E. faecium (ATCC BAA-2317); conditions: earlier trimethylammonium cation modified analogues; cited from earlier work
[18] = Enterococcus faecium, ATCCBAA2317, read-out: MIC, VanA E. faecium ATCC BAA-2317
[19] = 10 mg/kg, listed as C1-CBP-vancomycin (4)

## CN[C@H](CC(C)C)C(=O)N[C@H]1C(=O)N[C@@H](CC(N)=O)C(=O)N[C@H]2C(=O)NC3C(=O)N[C@H](C(=O)N[C@H](C(=O)NCCC[N+](C)(C)C)c4cc(O)cc(O)c4-c4cc3ccc4O)[C@H](O)c3ccc(c(Cl)c3)Oc3cc2cc(c3OC2OC(CO)C(O)[C@H](O)[C@@H]2O[C@H]2CC(C)(NCc3ccc(-c4ccc(Cl)cc4)cc3)[C@H](O)[C@H](C)O2)Oc2ccc(cc2Cl)[C@H]1O (single isomer, unassigned) [Compound 4, C1-CBP-vancomycin]
[1]; [18]
  MIC: 0.5 µg/mL
VanA VRE, 4 strains
  more potent than vancomycin: about 1000 fold
[2]
  MIC: 0.25 µg/mL
[3]; female, CD-1, mouse, in vivo
  AUC: 48400 ng·h/mL
  Cmax: 14.5 µg/mL
  Vd: 0.64 L/kg
  clearance: 2 mL/min/kg
  half-life: 306 min
  tmax: 4.8 min
[3]; mice
  MRTlNF—obs: 336 min
[3]; mice, this study
  Vd: (0.64) L/kg
[4]
  bacterial cell membrane permeabilization: pronounced membrane permeabilization
[5]
  MTD: 50 mg/kg
[6]
  terminal half-life (t1/2): 300 min
[6]; [19]
  AUC: 81100 ng·h/mL
  CL: 2 mL/min/kg
  Cmax: 14.1 µg/mL
  Vd: 1.25 L/kg
  t1/2: 420 min
  tmax: 30 min
[6]; 50 mg/kg
  AUC: 430000 ng·h/mL
  CL: 2 mL/min/kg
  Cmax: 58.9 µg/mL
  Vd: 1.04 L/kg
  t1/2: 372 min

## CN[C@H](CC(C)C)C(=O)N[C@H]1C(=O)N[C@@H](CC(N)=O)C(=O)N[C@H]2C(=O)N[C@H]3C(=O)N[C@H](C(=O)N[C@H](C(=O)O)c4cc(O)cc(O)c4-c4cc3ccc4O)[C@H](O)c3ccc(c(Cl)c3)Oc3cc2cc(c3O[C@@H]2O[C@H](CO)[C@@H](O)[C@H](O)[C@H]2O[C@H]2C[C@](C)(N)[C@H](O)[C@H](C)O2)Oc2ccc(cc2Cl)[C@H]1O [Compound 1, vancomycin]
[7]; Enterococcus faecalis, read-out: MIC, VanA E. faecalis BM 4166
  MIC: 250 µg/mL (≈ 173 µM)
[1]; [18]
  MIC: 250 µg/mL (≈ 173 µM)
[8]; Enterococcus faecalis, ATCCBAA2573, read-out: MIC, VanA E. faecalis ATCC BAA-2573
  MIC: 125 µg/mL (≈ 86.3 µM)
VanA E. faecium (TX2465)
  MIC: 250 µg/mL (≈ 173 µM)
VanA E. faecium (TX2465); Enterococcus faecium, read-out: MIC, VanA E. faecium TX2465
  MIC: 250 µg/mL (≈ 173 µM)
[9]
  MIC: 8 µg/mL (≈ 5.52 µM)
[10]; Staphylococcus aureus, ATCC25923, read-out: MIC, Sensitive S. aureus ATCC 25923
  MIC: 0.5 µg/mL (≈ 0.345 µM)
[11]
  MIC: 0.5 µg/mL (≈ 0.345 µM)
[12]
  decrease of antimicrobial activity by added LTA: no difference
[12]; read-out: MIC, +LTA
  MIC: 250 µg/mL (≈ 173 µM)
[12]; read-out: MIC, −LTA
  MIC: 250 µg/mL (≈ 173 µM)
[13]; read-out: MIC, +LTA
  MIC: 250 µg/mL (≈ 173 µM)
[13]; read-out: MIC, −LTA
  MIC: 250 µg/mL (≈ 173 µM)
[2]
  MIC: 250 µg/mL (≈ 173 µM)
[14]
  bacterial cell membrane permeabilization: no permeabilization
[15]
  activity in the VRSA thigh infection model: inactive
[5]
  MTD: 300 mg/kg
[6]
  terminal half-life (t1/2): 30 to 78 min
[6]; 10 mg/kg
  AUC: 21800 ng·h/mL
  CL: 7.67 mL/min/kg
  Cmax: 62.8 µg/mL
  Vd: 0.34 L/kg
  t1/2: 31.2 min
  tmax: 4.98 min
[6]; 300 mg/kg
  AUC: 935000 ng·h/mL
  CL: 5.33 mL/min/kg
  Cmax: 1665 µg/mL
  Vd: 0.62 L/kg
  t1/2: 81 min
  tmax: 4.98 min

## CN[C@H](CC(C)C)C(=O)N[C@H]1C(=O)N[C@@H](CC(N)=O)C(=O)N[C@H]2C(=O)NC3C(=O)N[C@H](C(=O)N[C@H](C(=O)NCCC[N+](C)(C)C)c4cc(O)cc(O)c4-c4cc3ccc4O)[C@H](O)c3ccc(c(Cl)c3)Oc3cc2cc(c3OC2OC(CO)C(O)[C@H](O)[C@@H]2O[C@H]2CC(C)(N)[C@H](O)[C@H](C)O2)Oc2ccc(cc2Cl)[C@H]1O (stereo partly shown) [Compound 3, C1-vancomycin]
[1]; [18]
  MIC: 31 µg/mL
[2]
  MIC: 63 µg/mL
[16]
  MIC, VanA E. faecalis BM 4166: 63 µg/mL
[17]
  MIC, VanA E. faecium ATCC BAA-2317: 31 µg/mL
[4]
  bacterial cell membrane permeabilization: weaker

## CN[C@H](CC(C)C)C(=O)N[C@H]1C(=O)N[C@@H](CC(N)=O)C(=O)N[C@H]2C(=O)NC3C(=O)N[C@H](C(=O)N[C@H](C(=O)NCc4ccc(NC(=N)N)cc4)c4cc(O)cc(O)c4-c4cc3ccc4O)[C@H](O)c3ccc(c(Cl)c3)Oc3cc2cc(c3OC2OC(CO)C(O)[C@H](O)[C@@H]2O[C@H]2CC(C)(N)[C@H](O)[C@H](C)O2)Oc2ccc(cc2Cl)[C@H]1O (stereo partly shown) [Compound 9, GBn-vancomycin]
[7]
  MIC, VanA E. faecalis BM 4166: 16 µg/mL (≈ 10 µM)
[1]
  MIC, VanA E. faecium ATCC BAA-2317: 4 µg/mL (≈ 2.51 µM)
[8]
  MIC, VanA E. faecalis ATCC BAA-2573: 4 µg/mL (≈ 2.51 µM)
VanA E. faecium (TX2465)
  MIC, VanA E. faecium TX2465: 8 µg/mL (≈ 5.01 µM)
[9]
  MIC, VanB E. faecalis ATCC 51299: 8 µg/mL (≈ 5.01 µM)
[10]
  MIC, Sensitive S. aureus ATCC 25923: 0.25 µg/mL (≈ 0.157 µM)
[11]
  MIC, MRSA S. aureus ATCC 43300: 0.12 µg/mL (≈ 0.0752 µM)
[12]; E. faecalis BM 4166, LTA 100 μg/mL
  MIC, +LTA: 16 µg/mL (≈ 10 µM)
[12]; E. faecalis BM 4166, no LTA
  MIC, −LTA: 16 µg/mL (≈ 10 µM)
[13]; E. faecium ATCC BAA-2317, LTA 100 μg/mL
  MIC, +LTA: 4 µg/mL (≈ 2.51 µM)
[13]; E. faecium ATCC BAA-2317, no LTA (0 μg/mL)
  MIC, −LTA: 4 µg/mL (≈ 2.51 µM)

## CN[C@H](CC(C)C)C(=O)N[C@H]1C(=O)N[C@@H](CC(N)=O)C(=O)N[C@H]2C(=O)N[C@H]3C(=O)N[C@H](C(=O)N[C@H](C(=O)NCc4ccc(NC(=N)N)cc4)c4cc(O)cc(O)c4-c4cc3ccc4O)[C@H](O)c3ccc(c(Cl)c3)Oc3cc2cc(c3OC2OC(CO)C(O)[C@H](O)C2O[C@H]2CC(C)(NCc3ccc(-c4ccc(Cl)cc4)cc3)[C@H](O)[C@H](C)O2)Oc2ccc(cc2Cl)[C@H]1O (stereo partly shown) [Compound 19, GBn-CBP-vancomycin]
[9]
  MIC: 0.04 µg/mL (≈ 0.0223 µM)
[10]; Staphylococcus aureus, ATCC25923; read-out: MIC, Sensitive S. aureus ATCC 25923
  MIC: 0.04 µg/mL (≈ 0.0223 µM)
[11]
  MIC: 0.02 µg/mL (≈ 0.0111 µM)
[12]
  decrease of antimicrobial activity by added LTA: 8 fold
[12]; read-out: MIC, +LTA
  MIC: 5 µg/mL (≈ 2.78 µM)
[12]; read-out: MIC, −LTA
  MIC: 0.6 µg/mL (≈ 0.334 µM)
[13]; read-out: MIC, +LTA
  MIC: 2.5 µg/mL (≈ 1.39 µM)
[13]; read-out: MIC, −LTA
  MIC: 0.3 µg/mL (≈ 0.167 µM)
[14]
  bacterial cell membrane permeabilization: strong membrane permeabilization

## CN[C@H](CC(C)C)C(=O)N[C@H]1C(=O)N[C@@H](CC(N)=O)C(=O)N[C@H]2C(=O)N[C@H]3C(=O)N[C@H](C(=O)N[C@H](C(=O)O)c4cc(O)c(CN[C@@H](CCCNC(=N)N)C(=O)OC)c(O)c4-c4cc3ccc4O)[C@H](O)c3ccc(c(Cl)c3)Oc3cc2cc(c3OC2OC(CO)C(O)[C@H](O)C2O[C@H]2CC(C)(N)[C@H](O)[C@H](C)O2)Oc2ccc(cc2Cl)[C@H]1O (stereo partly shown) [Compound 27, Arg(OMe)^Ar-vancomycin]
[7]; Enterococcus faecalis; read-out: MIC, VanA E. faecalis BM 4166
  MIC: 31 µg/mL (≈ 18.8 µM)
[1]; Enterococcus faecium, ATCCBAA2317; read-out: MIC, VanA E. faecium ATCC BAA-2317
  MIC: 8 µg/mL (≈ 4.85 µM)
[8]; Enterococcus faecalis, ATCCBAA2573; read-out: MIC, VanA E. faecalis ATCC BAA-2573
  MIC: 16 µg/mL (≈ 9.7 µM)
VanA E. faecium (TX2465); Enterococcus faecium; read-out: MIC, VanA E. faecium TX2465
  MIC: 63 µg/mL (≈ 38.2 µM)
VanA VRE, 4 strains; resistant organisms
  less potent compared with Arg(OMe)-vancomycin (Compound 10): ≤ 8 fold

From patent publication US20230146239A1 (THE SCRIPPS RESEARCH INSTITUTE, priority 2020, published 2023)
